Measured values taken from patent US10947242B2, “[1,2,4]triazolo[1,5and#8208;A]pyrimidine compounds as PDE2 inhibitors” (Janssen Pharmaceutica NV, priority 2016, dated 2021).
pIC50: −log10 of the molar value. Read-outs that look alike come from different tables or passages of the source.

Key:
PDE2A = target: T1, PDE2A (Rattus norvegicus, UniProt Q01062); test: PDE2 occupancy by test compounds, ex-vivo autoradiography with [3H]B-17a; format: in vivo, Male Wistar rats; settings: 10 mg/kg, percentage receptor occupancy, ex-vivo autoradiography, striatum
T1 construct: Twenty μm-thick striatal sections were cut; from tissue; host or cells: rat brain, striatal sections
T1 sequence (Q01062 1-928): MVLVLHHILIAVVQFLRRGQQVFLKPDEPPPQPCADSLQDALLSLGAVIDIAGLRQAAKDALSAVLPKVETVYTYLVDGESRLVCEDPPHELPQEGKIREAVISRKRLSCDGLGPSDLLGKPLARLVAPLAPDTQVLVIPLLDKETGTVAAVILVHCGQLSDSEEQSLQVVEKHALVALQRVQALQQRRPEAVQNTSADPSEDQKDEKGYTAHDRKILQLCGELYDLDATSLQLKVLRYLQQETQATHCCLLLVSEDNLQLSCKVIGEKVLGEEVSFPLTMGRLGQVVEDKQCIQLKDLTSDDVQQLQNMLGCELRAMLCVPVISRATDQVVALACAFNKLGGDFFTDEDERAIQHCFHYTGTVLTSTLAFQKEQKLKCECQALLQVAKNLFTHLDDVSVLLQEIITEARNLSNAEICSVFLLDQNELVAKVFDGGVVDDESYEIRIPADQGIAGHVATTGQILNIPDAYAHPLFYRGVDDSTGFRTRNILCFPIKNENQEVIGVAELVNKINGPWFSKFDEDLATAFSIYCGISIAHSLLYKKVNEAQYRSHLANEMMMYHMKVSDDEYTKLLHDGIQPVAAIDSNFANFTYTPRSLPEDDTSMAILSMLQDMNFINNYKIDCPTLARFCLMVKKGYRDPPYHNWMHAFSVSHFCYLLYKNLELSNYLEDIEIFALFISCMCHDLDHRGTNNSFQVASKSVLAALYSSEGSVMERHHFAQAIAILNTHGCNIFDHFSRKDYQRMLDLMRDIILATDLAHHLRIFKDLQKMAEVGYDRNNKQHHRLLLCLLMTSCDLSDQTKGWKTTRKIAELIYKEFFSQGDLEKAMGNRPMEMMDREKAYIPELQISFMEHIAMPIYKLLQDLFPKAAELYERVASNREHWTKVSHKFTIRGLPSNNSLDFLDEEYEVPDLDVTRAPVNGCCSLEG

[1] = target: T2, Human recombinant PDE10A (hPDE10A) (Homo sapiens, UniProt Q9Y233); test: In vitro assay PDE10A, human clone (SPA, 3H-cAMP hydrolysis); format: biochemical
T2 construct: His tag (inferred from metal chelate purification); made in house; host or cells: Sf9 insect cells (baculovirus)
Method in brief: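 Human recombinant PDE10A was expressed in Sf9 cells via baculovirus and incubated with compound in 50 mM Tris pH 7.8, 8.3 mM MgCl2, 1.7 mM EGTA. Substrate was 60 nM cAMP plus 0.008 μCi 3H-cAMP for 60 min at room temperature, read by SPA scintillation counting. Controls used 1% DMSO, and blanks omitted enzyme.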

[2] = target: T3, Human recombinant PDE3A (hPDE3A) (Homo sapiens, UniProt Q14432); test: In vitro assay PDE3A (SPA, 3H-cAMP hydrolysis); format: biochemical; settings: for IC50: read-out: pIC50 (converted); for Emax: read-out: hPDE3B Emax, read-out: Emax;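 for Emax: the method names PDE3A and the table heading PDE3B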
T3 construct: purchased Scottish Biomedical; host or cells: Sf9 insect cells
Method in brief: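 Human PDE3A, cloned from brain, as partially purified Sf9 lysate. Substrate 0.4 μM cAMP plus [3H]-cAMP (2.4 μCi/ml final) in 50 mM Tris pH 7.8, 8.3 mM MgCl2, 1.7 mM EGTA, 60 min at room temperature, 1% DMSO final. Hydrolysis read by SPA scintillation counting against no-enzyme blanks and DMSO controls.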

[3] = target: T4, Human recombinant PDE2A (hPDE2A) (Homo sapiens, UniProt O00408); test: In vitro assay PDE2A (SPA, 3H-cGMP hydrolysis); format: biochemical; settings: for IC50: read-out: hPDE2A pIC50 (converted); for Emax: read-out: hPDE2A Emax
T4 construct: His tag (inferred from metal chelate purification); made in house; host or cells: Sf9 insect cells (baculovirus)

[4] = human clone (h), default, read-out: hPDE10A2 Emax
[5] = human clone (h), default, read-out: hPDE10A2 pIC50 (converted)
[6] = human recombinant PDE2A, 10 μM cGMP substrate
[7] = human clone by default (no (r) mark), read-out: hPDE10A2 or rPDE10A2 Emax
[8] = human clone by default (no (r) mark), read-out: hPDE10A2 or rPDE10A2 pIC50 (converted)
[9] = hPDE2A pIC50, human recombinant PDE2A, 10 μM cGMP substrate

T2 sequence (Q9Y233 267-1055): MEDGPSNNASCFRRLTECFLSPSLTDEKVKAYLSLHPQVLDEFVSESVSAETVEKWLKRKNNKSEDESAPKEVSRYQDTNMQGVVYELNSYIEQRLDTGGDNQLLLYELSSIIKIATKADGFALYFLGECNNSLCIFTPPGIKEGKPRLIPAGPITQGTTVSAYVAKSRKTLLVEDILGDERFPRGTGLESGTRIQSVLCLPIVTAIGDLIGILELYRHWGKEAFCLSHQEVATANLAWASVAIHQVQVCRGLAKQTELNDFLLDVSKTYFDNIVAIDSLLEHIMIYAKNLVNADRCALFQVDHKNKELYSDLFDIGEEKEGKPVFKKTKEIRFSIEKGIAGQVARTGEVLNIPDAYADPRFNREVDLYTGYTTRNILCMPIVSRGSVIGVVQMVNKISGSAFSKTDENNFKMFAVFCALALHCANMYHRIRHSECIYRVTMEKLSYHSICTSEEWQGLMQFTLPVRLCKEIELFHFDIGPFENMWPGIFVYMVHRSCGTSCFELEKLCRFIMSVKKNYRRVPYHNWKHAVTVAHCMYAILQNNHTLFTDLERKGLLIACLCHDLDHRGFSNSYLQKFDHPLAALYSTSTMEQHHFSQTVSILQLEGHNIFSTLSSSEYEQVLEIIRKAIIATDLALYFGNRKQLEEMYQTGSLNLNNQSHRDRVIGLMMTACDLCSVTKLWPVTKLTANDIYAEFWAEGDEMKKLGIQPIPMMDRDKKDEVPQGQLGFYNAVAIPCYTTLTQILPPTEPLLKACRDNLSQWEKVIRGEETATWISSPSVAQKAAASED
T3 sequence (Q14432 whole entry): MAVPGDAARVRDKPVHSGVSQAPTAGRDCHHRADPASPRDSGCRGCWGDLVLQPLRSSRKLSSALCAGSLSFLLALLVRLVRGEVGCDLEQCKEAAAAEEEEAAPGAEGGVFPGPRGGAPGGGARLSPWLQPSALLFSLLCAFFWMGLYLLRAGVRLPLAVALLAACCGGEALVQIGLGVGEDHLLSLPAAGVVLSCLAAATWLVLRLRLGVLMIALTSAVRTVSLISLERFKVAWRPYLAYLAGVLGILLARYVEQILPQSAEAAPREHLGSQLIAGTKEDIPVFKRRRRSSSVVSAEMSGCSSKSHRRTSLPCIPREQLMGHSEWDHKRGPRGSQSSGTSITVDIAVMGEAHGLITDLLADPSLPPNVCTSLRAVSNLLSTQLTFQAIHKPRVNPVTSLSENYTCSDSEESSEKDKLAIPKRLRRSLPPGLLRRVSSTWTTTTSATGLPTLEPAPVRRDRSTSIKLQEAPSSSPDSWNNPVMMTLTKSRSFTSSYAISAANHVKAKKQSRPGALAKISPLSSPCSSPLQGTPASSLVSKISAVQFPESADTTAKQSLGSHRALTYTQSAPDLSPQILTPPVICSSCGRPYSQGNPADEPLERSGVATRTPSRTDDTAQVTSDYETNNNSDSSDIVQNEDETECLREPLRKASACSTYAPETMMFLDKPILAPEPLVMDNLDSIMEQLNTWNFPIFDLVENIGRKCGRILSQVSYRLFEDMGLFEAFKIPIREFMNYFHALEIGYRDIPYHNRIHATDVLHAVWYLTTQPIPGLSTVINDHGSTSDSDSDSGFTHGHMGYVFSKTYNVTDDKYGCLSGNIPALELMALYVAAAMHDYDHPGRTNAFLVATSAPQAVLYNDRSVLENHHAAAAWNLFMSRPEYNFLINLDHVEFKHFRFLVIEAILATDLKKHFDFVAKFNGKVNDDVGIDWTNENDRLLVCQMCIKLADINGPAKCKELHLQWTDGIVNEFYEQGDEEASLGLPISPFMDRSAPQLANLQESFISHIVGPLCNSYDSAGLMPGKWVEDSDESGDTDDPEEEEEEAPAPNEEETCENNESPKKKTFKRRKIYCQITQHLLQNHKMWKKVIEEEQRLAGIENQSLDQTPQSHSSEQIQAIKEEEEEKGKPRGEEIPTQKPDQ
T4 sequence (O00408 whole entry): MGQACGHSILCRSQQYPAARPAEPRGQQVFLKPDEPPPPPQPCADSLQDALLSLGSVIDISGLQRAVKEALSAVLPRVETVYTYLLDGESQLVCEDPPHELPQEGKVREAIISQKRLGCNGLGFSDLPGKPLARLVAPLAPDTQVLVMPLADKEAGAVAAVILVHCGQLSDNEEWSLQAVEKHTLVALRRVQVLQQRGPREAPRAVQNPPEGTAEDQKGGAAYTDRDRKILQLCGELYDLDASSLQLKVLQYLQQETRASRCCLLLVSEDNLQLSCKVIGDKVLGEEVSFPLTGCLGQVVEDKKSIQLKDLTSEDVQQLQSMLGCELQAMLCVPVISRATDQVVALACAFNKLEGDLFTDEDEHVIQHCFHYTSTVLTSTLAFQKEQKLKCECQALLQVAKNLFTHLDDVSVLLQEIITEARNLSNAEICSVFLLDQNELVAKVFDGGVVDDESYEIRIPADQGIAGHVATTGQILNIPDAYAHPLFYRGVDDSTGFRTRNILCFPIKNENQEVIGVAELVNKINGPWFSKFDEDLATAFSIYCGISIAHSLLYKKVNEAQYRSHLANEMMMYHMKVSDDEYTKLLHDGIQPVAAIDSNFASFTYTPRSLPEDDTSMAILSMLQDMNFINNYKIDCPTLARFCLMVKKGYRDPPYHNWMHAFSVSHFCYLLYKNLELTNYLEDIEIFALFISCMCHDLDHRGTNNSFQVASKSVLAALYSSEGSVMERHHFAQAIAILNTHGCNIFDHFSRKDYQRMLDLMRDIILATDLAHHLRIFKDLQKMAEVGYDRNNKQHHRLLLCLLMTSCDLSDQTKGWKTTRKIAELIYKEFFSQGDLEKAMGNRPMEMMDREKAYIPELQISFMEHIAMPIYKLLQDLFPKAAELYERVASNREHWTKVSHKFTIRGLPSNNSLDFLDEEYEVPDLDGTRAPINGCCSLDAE

SMILES	receptor occupancy at 10 mg/kg (PDE2A; po, route PO (oral)) [%]	Emax [1, 4] [%]	IC50 [1, 5] [nM]	IC50 ([2]; hPDE3B pIC50) [nM]	Emax [2] [%]	IC50 [3, 6] [nM]	Emax ([3]; human recombinant PDE2A) [%]	Emax [3] [%]	IC50 [3] [nM]	receptor occupancy at 10 mg/kg (PDE2A; route PO (oral)) [%]	Emax [1, 7] [%]	IC50 [1, 8] [nM]	receptor occupancy at 10 mg/kg (PDE2A; sc, route SC (subcutaneous)) [%]	pIC50 ([1]; hPDE10A2 or rPDE10A2 pIC50, human clone by default (no (r) mark))	pIC50 ([2]; hPDE3B pIC50)	pIC50 ([3]; hPDE2A pIC50)	pIC50 [3, 9]
COc1ccc(C(=O)N2CC[C@@H](C)[C@H](c3cc(C(F)F)nc4ncnn34)C2)cn1 [Compound 196]	0	92	562	4900	68	23.4	99	99	23.4								
C[C@@H]1CCN(C(=O)c2ccc(Cl)c(C(F)(F)F)c2)C[C@H]1c1cc(C(F)F)nc2ncnn12 [Compound 169]	3	98	178	1780	82	3.72	98	98	3.72								
Cn1c(C(=O)N2[C@H]3CC[C@H](c4cc(C(F)F)nc5ncnn45)[C@@H]2CC3)cc2ccccc21 [Compound 300]				2000	88			100	6.46	-11	80	2880					
Cc1ccc(C(=O)N2CC[C@@H](C)[C@H](c3cc(C(F)F)nc4ncnn34)C2)nc1C [Compound 85]		88	1200	7760	37	6.46	100	100	6.46				1				
C[C@@H]1CCN(C(=O)c2ccc(O)c(C#N)c2)C[C@H]1c1cc(C(F)F)nc2ncnn12 [Compound 231]		100	19.5	9120	57	1.35	97	97	1.35		100	19.5	-13				
O=C(c1ccc2ccccc2n1)N1[C@H]2CC[C@H](c3cc(C(F)F)nc4ncnn34)[C@@H]1CC2 [Compound 308]					72			98		18	66			5.17	5.34	7.76	
Cc1cc(C(=O)N2CC[C@@H](C)[C@H](c3cc(C)nc4ncnn34)C2)cc(C(F)(F)F)n1 [Compound 4]	9	99	24	5750	70			100								8.84	8.84
Cc1cc([C@@H]2CN(C(=O)c3cc(C4CC4)ncc3Cl)CC[C@H]2C)n2ncnc2n1 [Compound 391]	3			2240	81			99	2.4		97	63.1					
C[C@@H]1CCN(C(=O)c2ccn(C)n2)C[C@H]1c1cc(C(F)F)nc2ncnn12 [Compound 139]	-11	78	2400	> 10000	20	28.8	99	99	28.8								
C[C@@H]1CCN(C(=O)c2cc(Cl)cnc2C(F)(F)F)C[C@H]1c1cc(C(F)F)nc2ncnn12 [Compound 39]	-8	75	3090	> 10000	16	8.32	98	98	8.32								
Cc1cc([C@@H]2CN(C(=O)c3cc(C4CC4)ncc3C(F)(F)F)CC[C@H]2C)n2ncnc2n1 [Compound 283]	-12			> 10000	38			100	8.51		98	178					
Cc1nc(C(=O)N2CC[C@H](C)[C@H](c3cc(C(F)F)nc4ncnn34)C2)ccc1F [Compound 223]	19	71	3470	> 10000	19	195	98	98	195		71	3470					
Cc1cc([C@@H]2CN(C(=O)c3ccc4occc4c3)CC[C@H]2C)n2ncnc2n1 [Compound 6]	67	100	17.8	676	97			99								8.79	8.79
Cc1cc(C(=O)N2[C@H]3CC[C@H](c4cc(C(F)F)nc5ncnn45)[C@@H]2CC3)cc(C)c1F [Compound 346]				6030	68			100	5.25	19	92	724					
COc1ncc(C)cc1C(=O)N1CC[C@@H](C)[C@H](c2cc(C(F)F)nc3ncnn23)C1 [Compound 272]	3	93	794	8910	54			102	2.19		93	794					
